Laboratory results published in patent publication US4771055A, “7-[[3-(aminomethyl)-3-alkyl]-1-pyrrolidinyl]-quinoline-carboxylic acids” (Warner-Lambert Company, priority 1987, dated 1988).
≈ marks a conversion by molar mass, not a printed value. Like-named read-outs stand apart in the source and are kept apart here.

Key:
[1] = tested on: Enterobacter cloacae MA 2646; experiment: In vitro antibacterial activity, MIC, microtitration dilution method; assay type: cell-based; conditions: MA2646, read-out: Minimal Inhibitory Concentration MIC
Excerpt: (§1) The compounds of the invention display potent antibacterial activity against both gram-positive and -negative bacteria when tested by the microtitration dilution method as described in Heifetz, et al, Antimicr. Agents & Chemoth., 6, 124 (1974), which is incorporated herein by reference.

Escherichia coli Vogel = experiment: as above; assay type: cell-based; conditions: read-out: Minimal Inhibitory Concentration MIC
Excerpt: as §1

[2] = tested on: Klebsiella pneumoniae MGH-2; experiment: as above; assay type: cell-based; conditions: MGH2, read-out: Minimal Inhibitory Concentration MIC
Excerpt: as §1

Proteus rettgeri M 1771 = experiment: as above; assay type: cell-based; conditions: Providencia rettgeri, M1771, read-out: Minimal Inhibitory Concentration MIC
Excerpt: as §1

[3] = tested on: Pseudomonas aeruginosa UI-18; experiment: as above; assay type: cell-based; conditions: UI18, read-out: Minimal Inhibitory Concentration MIC
Excerpt: as §1

[4] = tested on: Staphylococcus aureus H 228; experiment: as above; assay type: cell-based; conditions: H228, read-out: Minimal Inhibitory Concentration MIC
Excerpt: as §1

[5] = tested on: Staphylococcus aureus UC-76; experiment: as above; assay type: cell-based; conditions: UC76, read-out: Minimal Inhibitory Concentration MIC
Excerpt: as §1

[6] = tested on: Streptococcus faecalis MGH-2; experiment: as above; assay type: cell-based; conditions: Enterococcus faecalis, MGH2, read-out: Minimal Inhibitory Concentration MIC
Excerpt: as §1

[7] = tested on: Streptococcus pneumoniae SV-1; experiment: as above; assay type: cell-based; conditions: SV1, read-out: Minimal Inhibitory Concentration MIC
Excerpt: as §1

[8] = tested on: Streptococcus pyogenes C-203; experiment: as above; assay type: cell-based; conditions: C203, read-out: Minimal Inhibitory Concentration MIC
Excerpt: as §1

E. coli = experiment: Acute mouse protection test (PD50); assay type: in vivo; conditions: Escherichia coli, mice, read-out: Protective Dose 50% PD50
Description: (§2) The advantage of the compounds of the present invention has been observed when tested orally and compared to a standard quinolone where the 7-position contains a corresponding 3-aminomethylpyrrolidinyl group without the additional 3-alkyl or cycloalkyl substituent.
(§3) Therapeutic activities of the compounds were compared to acute mouse protection tests in which 18- to 22-g female Charles River CD-1 mice were used. Oral or subcutaneous doses in twofold rising incremental series were administered concurrently with bacterial challenge. Challenges were accomplished by the intraperitoneal injection of an estimated 100 medial lethal doses in 0.5 ml volumes of 5% hog gastric mucin or tryptic soy broth. Generally, >90% of the untreated controls died within 48 to 72 hours. Final survival percentages, obtained after four to seven days of observation among groups of 8 to 16 mice, were pooled and used to estimate median protective doses (PD50) by the log-probit method. Ideally a PO/SC ratio for a therapeutically relevant antibacterial should be ≤5. Table 2 indicates the improvement in PO/SC ratio.

P. aerug. = experiment: Acute mouse protection test (PD50); assay type: in vivo; conditions: mice, read-out: Protective Dose 50% PD50
Description: as §2, §3

S. aureus = experiment: Acute mouse protection test (PD50); assay type: in vivo; conditions: Staphylococcus aureus, mice, read-out: Protective Dose 50% PD50
Description: as §2, §3

S. pyog. = experiment: Acute mouse protection test (PD50); assay type: in vivo; conditions: mice, read-out: Protective Dose 50% PD50
Description: as §2, §3

[9] = tested on: E. coli, P. aerug., S. aureus, S. pyog.; experiment: Acute mouse protection test, oral versus subcutaneous activity over all organisms; assay type: in vivo, mice; conditions: for PO/SC Ratio: ratio of PD50 PO to PD50 SC over the four organisms, mice
Description: as §2, §3

[10] = tested on: gram-positive and -negative bacteria; experiment: In vitro antibacterial activity, microtitration dilution method (overall); assay type: cell-based; conditions: comparison with Compound A
Excerpt: as §1

Row | Structure (SMILES) | MIC [1] [µg/mL] | MIC (Escherichia coli Vogel) [µg/mL] | MIC [2] [µg/mL] | MIC (Proteus rettgeri M 1771) [µg/mL] | MIC [3] [µg/mL] | MIC [4] [µg/mL] | MIC [5] [µg/mL] | MIC [6] [µg/mL] | MIC [7] [µg/mL] | MIC [8] [µg/mL] | ED50 (E. coli; PO) [mg/kg] | ED50 (E. coli; SC) [mg/kg] | ED50 (P. aerug.; PO) [mg/kg] | ED50 (P. aerug.; SC) [mg/kg] | ED50 (S. aureus; PO) [mg/kg] | ED50 (S. aureus; SC) [mg/kg] | ED50 (S. pyog.; PO) [mg/kg] | ED50 (S. pyog.; SC) [mg/kg] | PO/SC Ratio [9] | also measured
1 | NCC1CCN(c2c(F)cc3c(=O)c(C(=O)O)cn(C4CC4)c3c2F)C1 (stereo not shown) [Compound A, 7-[3-(aminomethyl)-1-pyrrolidinyl]-1-cyclopropyl-6,8-difluoro-1,4-dihydro-4-oxo-3-quinolinecarboxylic acid, reference compound] | 0.8 (≈ 2.2 µM) | 0.2 (≈ 0.55 µM) | 0.4 (≈ 1.1 µM) | 0.8 (≈ 2.2 µM) | 0.8 (≈ 2.2 µM) | 0.1 (≈ 0.275 µM) | 0.013 (≈ 0.0358 µM) | 0.1 (≈ 0.275 µM) | 0.012 (≈ 0.033 µM) | 0.012 (≈ 0.033 µM) | 13 | 1 | > 100 | 3 | 10 | 1 | 4 | 0.4 | ≥ 10 | 
2 | CC1(CN)CCN(c2c(F)cc3c(=O)c(C(=O)O)cn(C4CC4)c3c2F)C1 (stereo not shown) [Example 1, 7-[[3-(Aminomethyl)-3-methyl]-1-pyrrolidinyl]-1-cyclopropyl-6,8-difluoro-1,4-dihydro-4-oxo-3-quinolinecarboxylic acid] | 0.025 (≈ 0.0662 µM) | 0.05 (≈ 0.132 µM) | 0.1 (≈ 0.265 µM) | 0.2 (≈ 0.53 µM) | 0.4 (≈ 1.06 µM) | 0.013 (≈ 0.0344 µM) | ≤ 0.003 | 0.013 (≈ 0.0344 µM) | 0.006 (≈ 0.0159 µM) | 0.025 (≈ 0.0662 µM) | 2 | 1 | 38 | 18 | 5 | 2 | 9 | 3 | ≤ 3 | oral activity in mice compared to Compound A ([9]; PD50, mouse protection, comparison with Compound A): greater oral activity in mice; in vitro activity compared to Compound A [10]: comparable in vitro activity

Second part, led by results:

Row | MIC [1] [µg/mL] | MIC (Escherichia coli Vogel) [µg/mL] | MIC [2] [µg/mL] | MIC (Proteus rettgeri M 1771) [µg/mL] | MIC [3] [µg/mL] | MIC [4] [µg/mL] | MIC [5] [µg/mL] | MIC [6] [µg/mL] | MIC [7] [µg/mL] | MIC [8] [µg/mL] | Structure (SMILES) | ED50 (E. coli; PO) [mg/kg] | ED50 (E. coli; SC) [mg/kg] | ED50 (P. aerug.; PO) [mg/kg] | ED50 (P. aerug.; SC) [mg/kg] | ED50 (S. aureus; PO) [mg/kg] | ED50 (S. aureus; SC) [mg/kg] | ED50 (S. pyog.; PO) [mg/kg] | ED50 (S. pyog.; SC) [mg/kg] | PO/SC Ratio [9] | also measured
3 | 0.1 (≈ 0.255 µM) | 0.1 (≈ 0.255 µM) | 0.1 (≈ 0.255 µM) | 0.4 (≈ 1.02 µM) | 0.8 (≈ 2.04 µM) | 0.013 (≈ 0.0331 µM) | ≤ 0.003 | 0.025 (≈ 0.0637 µM) | ≤ 0.003 | 0.013 (≈ 0.0331 µM) | CC1(CN)CCN(c2c(F)c(N)c3c(=O)c(C(=O)O)cn(C4CC4)c3c2F)C1 (stereo not shown) [Example 2, 5-Amino-7-[[3-(aminomethyl)-3-methyl]-1-pyrrolidinyl]-1-cyclopropyl-6,8-difluoro-1,4-dihydro-4-oxo-3-quinolinecarboxylic acid] |  |  |  |  |  |  |  |  |  | 
4 | 0.1 (≈ 0.277 µM) | 0.4 (≈ 1.11 µM) | 0.2 (≈ 0.555 µM) | 0.8 (≈ 2.22 µM) | 0.8 (≈ 2.22 µM) | 0.05 (≈ 0.139 µM) | 0.013 (≈ 0.0361 µM) | 0.05 (≈ 0.139 µM) | 0.025 (≈ 0.0694 µM) | 0.05 (≈ 0.139 µM) | CC1(CN)CCN(c2nc3c(cc2F)c(=O)c(C(=O)O)cn3C2CC2)C1 (stereo not shown) [Example 3, 7-[[3-(Aminomethyl)-3-methyl]-1-pyrrolidinyl]-1-cyclopropyl-6-fluoro-1,4-dihydro-4-oxo-1,8-naphthyridine-3-carboxylic acid] |  |  |  |  |  |  |  |  |  | 
5 | 0.05 (≈ 0.127 µM) | 0.025 (≈ 0.0635 µM) | 0.05 (≈ 0.127 µM) | 0.1 (≈ 0.254 µM) | 0.2 (≈ 0.508 µM) | 0.013 (≈ 0.033 µM) | ≤ 0.003 | 0.013 (≈ 0.033 µM) | ≤ 0.003 | 0.013 (≈ 0.033 µM) | CC1(CN)CCN(c2c(F)cc3c(=O)c(C(=O)O)cn(C4CC4)c3c2Cl)C1 (stereo not shown) [Example 4, 7-[3-(Aminomethyl)-3-methyl-1-pyrrolidinyl]-8-chloro-1-cyclopropyl-6-fluoro-1,4-dihydro-4-oxo-3-quinolinecarboxylic acid] |  |  |  |  |  |  |  |  |  | 
